Test results as given in patent publication US20050165029A1, “Pyrrolopyrimidine derivatives and analogs and their use in the treatment and prevention of diseases” (Ambit Biosciences Corporation, priority 2004, published 2005).

What was measured:
TNIK = biological target: T1, TNIK (Homo sapiens, UniProt Q9UKE5); assay: TNIK (DKIN) Binding Assay
T1 construct: made in house; host or cells: T7 bacteriophage display
Source text: (§1) Methods for measuring binding affinities for interactions between small molecules and kinases including FLT3, c-KIT, ABL(T334I) [a.k.a. ABL(T315I)], VEGFR-2 (a.k.a. KDR), and EGFR are described in detail in U.S. application Ser. No. 10/873,835, which is incorporated by reference herein in its entirety. The components of the assays include human kinases expressed as fusions to T7 bacteriophage particles and immobilized ligands that bind to the ATP site of the kinases. […] If the test compound binds the kinase it competes with the immobilized ligand and prevents binding to the solid support. […] The results are read out by quantitating the amount of fusion protein bound to the solid support, which is accomplished by either traditional phage plaque assays or by quantitative PCR (qPCR) using the phage genome as a template. […] The concentration of test molecule that reduces the number of phage bound to the solid support by 50% is equal to the Kd for the interaction between the kinase and the test molecule. Typically, data are collected for twelve concentrations of test compound and, the resultant binding curve is fit to a non-cooperative binding isotherm to calculate Kd.
(§2) Described in the exemplary assays below is data from binding with varying kinases. […] The term “ND” represents non-determined values.

MARK2 = biological target: T2, MARK2 (Homo sapiens, UniProt Q7KZI7); assay: MARK2 (SKIN) Binding Assay
T2 construct: made in house; host or cells: T7 bacteriophage display
T2 sequence (Q7KZI7 whole entry): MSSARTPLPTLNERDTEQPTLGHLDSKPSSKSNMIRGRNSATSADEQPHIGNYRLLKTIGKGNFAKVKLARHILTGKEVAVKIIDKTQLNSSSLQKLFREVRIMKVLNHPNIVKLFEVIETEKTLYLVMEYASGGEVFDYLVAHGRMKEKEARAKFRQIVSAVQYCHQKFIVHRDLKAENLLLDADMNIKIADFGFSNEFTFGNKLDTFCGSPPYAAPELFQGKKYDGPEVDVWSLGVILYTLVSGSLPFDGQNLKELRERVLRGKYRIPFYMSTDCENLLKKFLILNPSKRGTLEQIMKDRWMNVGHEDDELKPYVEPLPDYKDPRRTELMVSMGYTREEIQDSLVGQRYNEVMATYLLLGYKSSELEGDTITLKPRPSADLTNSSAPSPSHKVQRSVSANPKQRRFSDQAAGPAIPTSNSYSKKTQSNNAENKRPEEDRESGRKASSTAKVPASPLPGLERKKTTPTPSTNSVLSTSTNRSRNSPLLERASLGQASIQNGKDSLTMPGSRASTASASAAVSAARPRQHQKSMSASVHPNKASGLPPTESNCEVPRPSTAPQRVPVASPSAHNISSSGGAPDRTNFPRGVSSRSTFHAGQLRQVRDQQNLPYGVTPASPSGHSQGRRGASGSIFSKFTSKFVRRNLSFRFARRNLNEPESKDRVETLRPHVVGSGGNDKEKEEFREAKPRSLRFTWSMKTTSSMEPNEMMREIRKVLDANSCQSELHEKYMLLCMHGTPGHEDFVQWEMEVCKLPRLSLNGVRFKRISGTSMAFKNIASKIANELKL
Source text: as §1, §2

PLK 4 = biological target: T3, PLK 4 (Homo sapiens, UniProt O00444); assay: PLK 4 (SKIN) Binding Assay
T3 construct: made in house; host or cells: T7 bacteriophage display
T3 sequence (O00444 1-970): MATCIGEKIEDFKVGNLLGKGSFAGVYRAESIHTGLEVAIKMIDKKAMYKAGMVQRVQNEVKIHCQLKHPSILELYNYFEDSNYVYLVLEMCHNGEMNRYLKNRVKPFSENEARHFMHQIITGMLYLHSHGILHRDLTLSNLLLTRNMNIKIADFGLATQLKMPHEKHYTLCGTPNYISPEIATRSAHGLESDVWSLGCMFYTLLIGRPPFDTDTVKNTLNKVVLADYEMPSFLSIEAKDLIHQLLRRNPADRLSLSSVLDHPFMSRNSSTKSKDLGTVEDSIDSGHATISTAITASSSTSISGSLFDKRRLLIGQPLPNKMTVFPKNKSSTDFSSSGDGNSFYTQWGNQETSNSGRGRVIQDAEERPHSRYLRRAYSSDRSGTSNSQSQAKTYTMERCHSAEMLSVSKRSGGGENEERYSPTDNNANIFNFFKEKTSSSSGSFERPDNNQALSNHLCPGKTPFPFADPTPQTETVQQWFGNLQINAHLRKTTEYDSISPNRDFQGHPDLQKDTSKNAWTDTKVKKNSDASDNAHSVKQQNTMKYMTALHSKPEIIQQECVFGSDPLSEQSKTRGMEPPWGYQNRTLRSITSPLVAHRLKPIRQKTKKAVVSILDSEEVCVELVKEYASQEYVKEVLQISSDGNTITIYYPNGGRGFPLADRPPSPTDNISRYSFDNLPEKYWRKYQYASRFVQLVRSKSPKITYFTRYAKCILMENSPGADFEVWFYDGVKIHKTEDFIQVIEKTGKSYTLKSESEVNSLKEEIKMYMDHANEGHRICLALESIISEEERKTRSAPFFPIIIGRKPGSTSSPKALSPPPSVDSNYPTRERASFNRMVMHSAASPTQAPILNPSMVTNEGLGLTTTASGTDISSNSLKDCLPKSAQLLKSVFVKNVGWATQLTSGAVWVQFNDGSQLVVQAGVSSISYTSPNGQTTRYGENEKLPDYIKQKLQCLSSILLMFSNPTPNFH
Source text: as §1, §2

ABL2 = biological target: T4, ABL2 (Homo sapiens, UniProt P42684); assay: ABL2 (DKIN) binding assay
T4 construct: made in house; host or cells: T7 bacteriophage display
T4 sequence (P42684 whole entry): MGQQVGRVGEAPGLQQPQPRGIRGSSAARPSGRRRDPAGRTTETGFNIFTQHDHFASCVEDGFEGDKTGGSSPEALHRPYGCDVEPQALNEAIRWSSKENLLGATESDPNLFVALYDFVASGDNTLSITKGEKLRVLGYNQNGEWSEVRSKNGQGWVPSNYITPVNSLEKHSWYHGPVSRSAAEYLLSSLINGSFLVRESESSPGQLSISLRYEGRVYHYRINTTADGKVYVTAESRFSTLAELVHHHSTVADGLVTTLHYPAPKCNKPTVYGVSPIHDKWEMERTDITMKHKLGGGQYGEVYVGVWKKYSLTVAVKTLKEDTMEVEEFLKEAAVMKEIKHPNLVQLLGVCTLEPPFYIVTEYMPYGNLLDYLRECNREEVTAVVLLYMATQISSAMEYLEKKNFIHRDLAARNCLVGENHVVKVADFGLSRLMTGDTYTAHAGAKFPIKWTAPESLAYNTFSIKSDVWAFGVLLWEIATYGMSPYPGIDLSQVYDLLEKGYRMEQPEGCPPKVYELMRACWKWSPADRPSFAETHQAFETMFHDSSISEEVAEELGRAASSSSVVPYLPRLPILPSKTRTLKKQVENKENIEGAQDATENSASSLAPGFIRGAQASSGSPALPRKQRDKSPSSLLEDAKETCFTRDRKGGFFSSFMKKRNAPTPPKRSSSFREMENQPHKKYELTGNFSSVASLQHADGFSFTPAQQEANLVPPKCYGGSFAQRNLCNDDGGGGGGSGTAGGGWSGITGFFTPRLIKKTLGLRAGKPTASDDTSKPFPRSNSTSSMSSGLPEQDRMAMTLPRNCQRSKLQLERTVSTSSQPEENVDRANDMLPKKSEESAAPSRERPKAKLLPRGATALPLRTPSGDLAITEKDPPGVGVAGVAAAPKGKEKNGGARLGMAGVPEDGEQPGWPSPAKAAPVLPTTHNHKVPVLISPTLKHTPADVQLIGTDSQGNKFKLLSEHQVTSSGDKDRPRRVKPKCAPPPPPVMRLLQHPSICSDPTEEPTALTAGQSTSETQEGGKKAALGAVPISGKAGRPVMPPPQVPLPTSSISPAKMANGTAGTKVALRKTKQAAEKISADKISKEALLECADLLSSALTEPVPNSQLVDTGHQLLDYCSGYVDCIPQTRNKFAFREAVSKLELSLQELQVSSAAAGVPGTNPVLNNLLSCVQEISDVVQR
Source text: as §1, §2

T1 sequence (Q9UKE5 whole entry): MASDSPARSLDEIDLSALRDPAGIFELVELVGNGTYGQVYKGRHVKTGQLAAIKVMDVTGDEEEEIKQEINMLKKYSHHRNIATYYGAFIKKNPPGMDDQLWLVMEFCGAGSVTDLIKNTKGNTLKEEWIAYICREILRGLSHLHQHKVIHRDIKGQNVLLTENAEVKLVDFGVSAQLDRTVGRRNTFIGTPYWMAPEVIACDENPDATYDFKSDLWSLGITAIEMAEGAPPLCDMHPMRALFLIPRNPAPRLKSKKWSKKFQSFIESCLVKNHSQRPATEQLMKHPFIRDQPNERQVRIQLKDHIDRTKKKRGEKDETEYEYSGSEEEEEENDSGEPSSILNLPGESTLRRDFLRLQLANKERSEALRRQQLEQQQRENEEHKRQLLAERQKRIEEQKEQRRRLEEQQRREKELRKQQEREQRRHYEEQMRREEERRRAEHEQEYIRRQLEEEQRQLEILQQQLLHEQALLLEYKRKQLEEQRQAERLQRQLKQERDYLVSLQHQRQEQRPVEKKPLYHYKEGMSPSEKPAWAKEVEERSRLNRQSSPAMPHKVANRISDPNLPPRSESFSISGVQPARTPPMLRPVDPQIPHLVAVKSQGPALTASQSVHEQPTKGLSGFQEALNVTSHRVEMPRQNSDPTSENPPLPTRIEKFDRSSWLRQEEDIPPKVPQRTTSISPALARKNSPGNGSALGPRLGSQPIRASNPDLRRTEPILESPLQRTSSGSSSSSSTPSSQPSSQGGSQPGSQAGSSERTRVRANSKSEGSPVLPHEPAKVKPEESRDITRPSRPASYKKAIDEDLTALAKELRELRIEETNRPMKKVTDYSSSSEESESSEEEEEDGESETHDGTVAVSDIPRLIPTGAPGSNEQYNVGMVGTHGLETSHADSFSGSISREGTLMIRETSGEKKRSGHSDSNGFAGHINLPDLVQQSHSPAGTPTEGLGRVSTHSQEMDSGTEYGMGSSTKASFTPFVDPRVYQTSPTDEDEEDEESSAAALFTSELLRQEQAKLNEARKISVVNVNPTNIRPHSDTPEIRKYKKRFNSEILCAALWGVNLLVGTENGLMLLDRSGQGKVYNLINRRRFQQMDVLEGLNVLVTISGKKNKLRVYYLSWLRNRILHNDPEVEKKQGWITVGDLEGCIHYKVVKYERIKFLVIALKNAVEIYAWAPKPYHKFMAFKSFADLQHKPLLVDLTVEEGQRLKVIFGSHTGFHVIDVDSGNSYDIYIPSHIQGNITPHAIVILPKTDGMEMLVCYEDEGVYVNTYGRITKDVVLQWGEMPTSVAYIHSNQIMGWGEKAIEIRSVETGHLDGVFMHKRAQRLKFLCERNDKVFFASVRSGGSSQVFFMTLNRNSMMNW

Kd (TNIK): < 0.1 µM
Kd (MARK2): > 10 µM
Kd (PLK 4): > 10 µM
Kd (ABL2): 1 to 10 µM
SMILES: Oc1ccc(-c2cc3c(Sc4cccc(Cl)c4)ncnc3[nH]2)cc1 [Compound L2]
